This is an account of results in patent US12390532B2, “ALK protein regulator and anti-tumor application thereof” (SHANGHAITECH UNIVERSITY, priority 2019, dated 2025).

In assay [1] the test system is triple-negative breast cancer MDA-MB-231 cell line. Briefly: Proliferation inhibition (IC50) in MDA-MB-231 cell line. Particulars: Homo sapiens, WST reagent, 72 hours, read-out: IC50 (half inhibitory concentration) in MDA-MB-231 cell line. It counts as cell-based. How it is done:
(§1) The ALK gene rearrangement positive cell line used was SR cells (NPM-ALK, human anaplastic large cell lymphoma cells). MDA-MB231 was a triple-negative breast cancer cell. Both SR cells and MDA-MB231 cells were purchased from ATCC. The 293T cells overexpressing EML4-ALK G1202R were the cells constructed and verified for correct expression by this laboratory.
(§2) The IC50 of the compound of the present disclosure was determined using Promega's Cell Titer Blue, Cell Titer GLO or commercially available WST reagents. The specific steps were as follows: the cells were seeded in a 96-well plate containing 100 microliters of RPMI medium containing serum at a number of 2000 cells/well. On the second day, the original drug and the compound of the present disclosure were serially diluted and added to the cells. After 72 hours of treatment with the compound of the present disclosure, the cell activity detection reagent was added to the culture medium for cell activity determination according to the instructions. The negative control was DMSO, and the positive control was the original drug, and the cells were treated in the same manner as the compound of the present disclosure. The growth inhibition of the compounds of the present disclosure on cells was plotted by Prism Graphpad software and the IC50 of the compounds of the present disclosure was counted from it.

The next assay relates to lung cancer patients. Particulars: cited from earlier work.
The subject of assay [2] is SR cells (NPM-ALK, human anaplastic large cell lymphoma cells). Briefly: Proliferation inhibition (IC50) in SR cells, CCK8 (WST) reagent. It counts as cell-based. Particulars: 72 h. The method, then:
The ALK gene rearrangement positive cell line used was SR cells (NPM-ALK, human anaplastic large cell lymphoma cells). MDA-MB231 was a triple-negative breast cancer cell. Both SR cells and MDA-MB231 cells were purchased from ATCC.
The tumor cell line used was daily cultured in a 37° C. incubator containing 5% CO2. The medium was RPMI1640 supplemented with 10% FCS and Penicillin-Streptomycin.
as §2
We conducted dose-dependent experiments on the designed and synthesized compounds of the present disclosure in SR cells. […] The cells were treated with different concentrations of compounds (starting at 10 μM, 3 times dilution factor, 10 concentrations). After 72 hours, the cells were detected using CCK8 reagent (WST).

Assay [3] concerns 293T cells overexpressing EML4-ALK G1202R. Kind of assay: Proliferation inhibition (IC50) in 293T cells overexpressing EML4-ALK G1202R. The conditions noted are these: Homo sapiens, HEK-293T; WST reagent, 72 hours; read-out: IC50 (half inhibitory concentration) in 293T cells overexpressing EML4-ALK G1202R. It counts as cell-based. The method, then: as §2
The target of the next assay is T1, ALK protein (Homo sapiens, UniProt Q9UM73).
T1 construct: We studied the total ALK protein in the anaplastic large cell lymphoma cell line SR; host or cells: SR cells (human anaplastic large cell lymphoma); the other entry of the earlier key: NPM1 (P06748, Nucleophosmin)
T1 sequence (Q9UM73 with tags, fused parts or gaps): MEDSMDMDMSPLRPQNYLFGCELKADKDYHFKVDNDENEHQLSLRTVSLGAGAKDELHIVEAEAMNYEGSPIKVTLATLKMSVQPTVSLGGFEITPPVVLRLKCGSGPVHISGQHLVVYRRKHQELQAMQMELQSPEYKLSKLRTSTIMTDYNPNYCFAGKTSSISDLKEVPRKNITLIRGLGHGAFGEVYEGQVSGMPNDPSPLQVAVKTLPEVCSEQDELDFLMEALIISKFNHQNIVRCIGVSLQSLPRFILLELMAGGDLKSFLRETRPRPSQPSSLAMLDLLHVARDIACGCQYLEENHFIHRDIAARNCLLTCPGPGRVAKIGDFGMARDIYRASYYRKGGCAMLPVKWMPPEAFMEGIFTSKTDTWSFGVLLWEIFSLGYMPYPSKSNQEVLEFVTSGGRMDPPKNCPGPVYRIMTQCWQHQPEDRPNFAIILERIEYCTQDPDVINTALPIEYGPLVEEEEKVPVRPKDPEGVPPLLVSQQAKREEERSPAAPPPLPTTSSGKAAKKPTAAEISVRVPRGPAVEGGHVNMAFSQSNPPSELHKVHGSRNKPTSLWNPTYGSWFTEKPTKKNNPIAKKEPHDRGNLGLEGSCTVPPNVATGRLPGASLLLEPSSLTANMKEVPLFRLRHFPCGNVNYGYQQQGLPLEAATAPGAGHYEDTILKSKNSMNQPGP
Kind of assay: Western blot of ALK protein degradation in SR cells. It counts as cell-based. The method, then:
as §1
Tumor cells were seeded in a 24-well plate containing 1 ml of RPMI1640 medium at 1.5-3×10^5 cells/well. The next day, the cells were treated with different concentrations of drugs. After 16 hours, the supernatant was removed and the cells were washed with PBS. The cells were placed on ice and the cells were treated with RIPA protein lysate containing Halt protease and phosphatase inhibitors. The lysate was centrifuged at 10000RPM at 4° C. for 10 minutes, and the supernatant was collected. The same amount of protein was added to the 4×SDS sample solution, denatured at 95° C. for 5 minutes and freezen to −20° C., or protein electrophoresis was directly performed. GenScript, a 4-20% gradient protein precast gel was used as the electrophoresis gel. The electrophoresis tank and related components were purchased from Bio-rad, and the electrophoresis conditions were equal pressure 120 v for 2 hours. PVDF membrane was used for the transfer membrane, and the transfer membrane system was placed on ice with an equal current of 400 mA for one hour. After transferring the membrane, it was sealed with TBST+5% milk powder for half an hour. For the specific steps of immunoblotting, refer to the antibody instructions of Cell Signaling Technology.
DC50 (the drug concentration corresponding to protein degradation to 50%) calculation: according to the gray value of the Western blotting band after the drug is processed, the relationship curve between the drug concentration and the gray value is fitted by Prism GraphPad software to calculate the drug concentration range corresponding half of the gray value.
The cells with different concentrations (0, 10, 50, 100, 500 nM) of Brigatinib were first treated in SR cells for 16 hours. Western blotting was used on cell lysate to detect the effect of Brigatinib on the content of ALK protein (FIG. 2).
In general terms: A western blot detects proteins with antibodies after separation by electrophoresis.

Setting [4] is: SR cells, WST reagent, 72 hours, read-out: IC50 (half inhibitory concentration), Brigatinib series in lymphoma cell lines.
Setting [5] is: read-out: IC50 (half inhibitory concentration), Alectinib series in lymphoma cell lines, SR cells, WST reagent, 72 hours.
[6] abbreviates: read-out: DC50 (half degradation concentration), Alectinib series in lymphoma cell lines, 16 hours, concentration range at half of the gray value.
The mark [7] stands for this setting: 16 hours, concentration range at half of the gray value, read-out: DC50 (half degradation concentration), Brigatinib series in lymphoma cell lines.

SMILES strings stand for the structures. Read-outs that look alike come from different tables or passages of the source.

`COc1cc(N2CCC(N3CCN(C)CC3)CC2)ccc1Nc1ncc(Cl)c(Nc2ccccc2P(C)(C)=O)n1` [Brigatinib, reference compound]: the figures for the IC50 in assay [1], in assay [2] (setting [4]) and in assay [3] were 381 ± 41 nM, 6.9 nM and 473 ± 129 nM, respectively. Moreover, the control rate in the assay with lung cancer patients is given as 86%. For the same compound, the effective rate with lung cancer patients is given as 55%. The “degradation effect on ALK protein” value at ALK protein (16 hours, concentrations up to 500 nM) is reported as “no degradation effect”.

`COc1cc(N2CCC(N3CCN(CCCC#Cc4cccc5c4CN(C4CCC(=O)NC4=O)C5=O)CC3)CC2)ccc1Nc1ncc(Cl)c(Nc2ccccc2P(C)(C)=O)n1` (centres unmarked) [SIAIS262039, 3-(4-(5-(4-(1-(4-((5-chloro-4-((2-(dimethylphosphono)phenyl)amino)pyrimidin-2-yl)amino)-3-methoxyphenyl)piperidin-4-yl)piperazin-1-yl)pent-1-yn-1-yl)-1-oxoisoindolin-2-yl)piperidine-2,6-dione]: the IC50 in assay [1] was 22.5 ± 2.26 nM; in assay [2] (setting [4]), around 1 nM. Besides, the “concentration from which a degradation effect on ALK protein is shown” value (“concentration” for short) at ALK protein was “less than 0.005 nM”.

Take `CCc1cc2c(cc1N1CCC(N3CCN(CCCC#Cc4cccc5c4CN(C4CCC(=O)NC4=O)C5=O)CC3)CC1)C(C)(C)c1[nH]c3cc(C#N)ccc3c1C2=O` (centres unmarked) [SIAIS293001, 8-(4-(4-(5-(2-(2,6-dioxopiperidin-3-yl)-1-oxoisoindolin-4-yl)pent-4-yn-1-yl)piperazin-1-yl)piperidin-1-yl)-9-ethyl-6,6-dimethyl-11-oxo-6,11-dihydro-5H-benzo[b]carbazole-3-carbonitrile]: in assay [2] (setting [5]), the IC50 stood at 2.7 nM. Further, the DC50 at ALK protein (setting [6]) lay within 0.05 to 0.5 nM.

For `CCc1cc2c(cc1N1CCC(N3CCN(C(=O)COc4cccc5c4C(=O)N(C4CCC(=O)NC4=O)C5=O)CC3)CC1)C(C)(C)c1[nH]c3cc(C#N)ccc3c1C2=O` (centres unmarked) [SIAIS293010, 8-(4-(4-(2-((2-(2,6-dioxopiperidin-3-yl)-1,3-dioxoisoindolin-4-yl)oxy)acetyl)piperazin-1-yl)piperidin-1-yl)-9-ethyl-6,6-dimethyl-11-oxo-6,11-dihydro-5H-benzo[b]carbazole-3-carbonitrile], the IC50 in assay [2] (setting [5]) stood at 2 nM. Also, on ALK protein, the “concentration” value was found to be 0.5 nM. For the same compound, the DC50 on ALK protein (setting [6]) lay within 0.05 to 0.5 nM.

As for `COc1cc(N2CCC(N3CCN(CCCCCCC#Cc4cccc5c4CN(C4CCC(=O)NC4=O)C5=O)CC3)CC2)ccc1Nc1ncc(Cl)c(Nc2ccccc2P(C)(C)=O)n1` (centres unmarked) [SIAIS293017, 3-(4-(8-(4-(1-(4-((5-chloro-4-((2-(dimethylphosphono)phenyl)amino)pyrimidin-2-yl)amino)-3-methoxyphenyl)piperidin-4-yl)piperazin-1-yl)oct-1-yn-1-yl)-1-oxoisoindolin-2-yl)piperidine-2,6-dione], in assay [2] (setting [4]), the IC50 amounted to 1.5 nM. Besides, the DC50 at ALK protein (setting [7]) was in the range of 0.5 to 5 nM.

With `COc1cc(N2CCC(N3CCN(CCCCCCCC#Cc4cccc5c4CN(C4CCC(=O)NC4=O)C5=O)CC3)CC2)ccc1Nc1ncc(Cl)c(Nc2ccccc2P(C)(C)=O)n1` (centres unmarked) [SIAIS293018, 3-(4-(9-(4-(1-(4-((5-chloro-4-((2-(dimethylphosphono)phenyl)amino)pyrimidin-2-yl)amino)-3-methoxyphenyl)piperidin-4-yl)piperazin-1-yl)non-1-yn-1-yl)-1-oxoisoindolin-2-yl)piperidine-2,6-dione], the IC50 in assay [2] (setting [4]) amounted to 2 nM. Further, on ALK protein, the “concentration” value was 5 nM. Also, at ALK protein (setting [7]), the DC50 fell in the range of 0.05 to 0.5 nM.

As for `COc1cc(N2CCC(NCCCC#Cc3cccc4c3CN(C3CCC(=O)NC3=O)C4=O)CC2)ccc1Nc1ncc(Cl)c(Nc2ccccc2P(C)(C)=O)n1` (centres unmarked) [SIAIS293093, 3-(4-(5-((1-(4-((5-chloro-4-((2-(dimethylphosphono)phenyl)amino)pyrimidin-2-yl)amino)-3-methoxyphenyl)piperidin-4-yl)amino)pent-1-yn-1-yl)-1-oxoisoindolin-2-yl)piperidine-2,6-dione], the IC50 in assay [1] was 191 ± 106 nM; in assay [2] (setting [4]), 1.3 nM.

In the case of `COc1cc(N2CCC(N3CCN(Cc4ccc(CSc5cccc6c5CN(C5CCC(=O)NC5=O)C6=O)cc4)CC3)CC2)ccc1Nc1ncc(Cl)c(Nc2ccccc2P(C)(C)=O)n1` (centres unmarked) [SIAIS293189, 3-(4-((4-((4-(1-(4-((5-chloro-4-((2-(dimethylphosphono)phenyl)amino)pyrimidin-2-yl)amino)-3-methoxyphenyl)piperidin-4-yl)piperazin-1-yl)methyl)benzyl)thio)-1-oxoisoindolin-2-yl)piperidine-2,6-dione], the values for the IC50 in assay [2] (setting [4]) and in assay [3] were 0.1 ± 0.02 nM and 99.5 ± 8.62 nM, respectively. For the same compound, the DC50 at ALK protein (setting [7]) is 0.05 to 0.5 nM.

As for `COc1cc(N2CCC(N3CCN(CCCCCc4cccc5c4CN(C4CCC(=O)NC4=O)C5=O)CC3)CC2)ccc1Nc1ncc(Cl)c(Nc2ccccc2P(C)(C)=O)n1` (centres unmarked) [SIAIS352008, 3-(4-(5-(4-(1-(4-((5-chloro-4-((2-(dimethylphosphono)phenyl)amino)pyrimidin-2-yl)amino)-3-methoxyphenyl)piperidin-4-yl)piperazin-1-yl)pentyl)-1-oxoisoindolin-2-yl)piperidine-2,6-dione], the IC50 was determined as 4.5 ± 0.5 nM in assay [1] and 2.1 ± 1.2 nM in assay [2] (setting [4]). Besides, the DC50 on ALK protein (setting [7]) fell in the range of 0.05 to 0.5 nM.

As to `COc1cc(N2CCC(N3CCN(CCSc4cccc5c4CN(C4CCC(=O)NC4=O)C5=O)CC3)CC2)ccc1Nc1ncc(Cl)c(Nc2ccccc2P(C)(C)=O)n1` (centres unmarked) [SIAIS352011, 3-(4-((2-(4-(1-(4-((5-chloro-4-((2-(dimethylphosphono)phenyl)amino)pyrimidin-2-yl)amino)-3-methoxyphenyl)piperidin-4-yl)piperazin-1-yl)ethyl)thio)-1-oxoisoindolin-2-yl)piperidine-2,6-dione], the IC50 is 4.9 ± 1.04 nM in assay [1] and 1.2 ± 0.3 nM in assay [2] (setting [4]). The DC50 on ALK protein (setting [7]) lay in the range of 0.5 to 5 nM.

As to `COc1cc(N2CCC(N3CCN(CCCCc4cccc5c4CN(C4CCC(=O)NC4=O)C5=O)CC3)CC2)ccc1Nc1ncc(Cl)c(Nc2ccccc2P(C)(C)=O)n1` (centres unmarked) [SIAIS352059, 3-(4-(4-(4-(1-(4-((5-chloro-4-((2-(dimethylphosphono)phenyl)amino)pyrimidin-2-yl)amino)-3-methoxyphenyl)piperidin-4-yl)piperazin-1-yl)butyl)-1-oxoisoindolin-2-yl)piperidine-2,6-dione], the figures for the IC50 in assay [1] and in assay [2] (setting [4]) were 75 ± 58 nM and 1.1 ± 0.3 nM, respectively.
